The results in this text go back to ChEMBL document CHEMBL1833885 (Bioorg Med Chem Lett, 2011).

Each structure is given as a SMILES string.

The target in assay [1] is Carbonic anhydrase 1 (Homo sapiens, UniProt P00915). The assay is described as follows: Inhibition of human carbonic anhydrase 1-catalyzed CO2 hydration activity by stopped flow assay.
Assay [2] concerns the target Carbonic anhydrase 9 (Homo sapiens, UniProt Q16790).

Chain of Carbonic anhydrase 1 (P00915 whole entry): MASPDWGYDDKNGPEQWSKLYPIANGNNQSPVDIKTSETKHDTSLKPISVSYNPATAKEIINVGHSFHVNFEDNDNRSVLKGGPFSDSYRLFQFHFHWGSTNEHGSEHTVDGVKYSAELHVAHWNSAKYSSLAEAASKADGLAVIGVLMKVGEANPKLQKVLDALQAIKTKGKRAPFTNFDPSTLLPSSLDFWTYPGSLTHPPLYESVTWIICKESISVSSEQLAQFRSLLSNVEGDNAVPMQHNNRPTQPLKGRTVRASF

For orientation: Ki means the equilibrium dissociation constant of an inhibitor or competing ligand from its target. For `NS(=O)(=O)c1ccccc1C#Cc1cccc(F)c1`, the Ki in assay [1] turned out to be 416 µM; in assay [2], 8.45 µM.

On to `Cc1ccc(C#Cc2ccccc2S(N)(=O)=O)cc1`, for which the Ki in assay [1] was 674 µM; in assay [2], 8.6 µM.

With `NS(=O)(=O)c1ccccc1C#Cc1ccccc1`, the Ki in assay [2] was 6.37 µM.

Molecule `NS(=O)(=O)c1ccc(C#Cc2cccc(F)c2)cc1` gave a Ki in assay [2] of 0.0058 µM.

In assay [2], `COc1cccc(C#Cc2ccc(S(N)(=O)=O)cc2)c1` came in with a Ki of 0.0065 µM.
